Columns and labels:
STAT6 = target: T1, STAT6 (Homo sapiens, UniProt P42226); experiment: Reporter (luciferase) assay for STAT6 transcriptional activity in HepG2 cells; type: cell-based; design: endogenous in cells; host or cells: HepG2 (gene transfected); conditions: gene transfected HepG2, 10 ng IL-4, PLAG 0.01-10 μg/ml, 12 hours incubation
T1 sequence (P42226 1-847): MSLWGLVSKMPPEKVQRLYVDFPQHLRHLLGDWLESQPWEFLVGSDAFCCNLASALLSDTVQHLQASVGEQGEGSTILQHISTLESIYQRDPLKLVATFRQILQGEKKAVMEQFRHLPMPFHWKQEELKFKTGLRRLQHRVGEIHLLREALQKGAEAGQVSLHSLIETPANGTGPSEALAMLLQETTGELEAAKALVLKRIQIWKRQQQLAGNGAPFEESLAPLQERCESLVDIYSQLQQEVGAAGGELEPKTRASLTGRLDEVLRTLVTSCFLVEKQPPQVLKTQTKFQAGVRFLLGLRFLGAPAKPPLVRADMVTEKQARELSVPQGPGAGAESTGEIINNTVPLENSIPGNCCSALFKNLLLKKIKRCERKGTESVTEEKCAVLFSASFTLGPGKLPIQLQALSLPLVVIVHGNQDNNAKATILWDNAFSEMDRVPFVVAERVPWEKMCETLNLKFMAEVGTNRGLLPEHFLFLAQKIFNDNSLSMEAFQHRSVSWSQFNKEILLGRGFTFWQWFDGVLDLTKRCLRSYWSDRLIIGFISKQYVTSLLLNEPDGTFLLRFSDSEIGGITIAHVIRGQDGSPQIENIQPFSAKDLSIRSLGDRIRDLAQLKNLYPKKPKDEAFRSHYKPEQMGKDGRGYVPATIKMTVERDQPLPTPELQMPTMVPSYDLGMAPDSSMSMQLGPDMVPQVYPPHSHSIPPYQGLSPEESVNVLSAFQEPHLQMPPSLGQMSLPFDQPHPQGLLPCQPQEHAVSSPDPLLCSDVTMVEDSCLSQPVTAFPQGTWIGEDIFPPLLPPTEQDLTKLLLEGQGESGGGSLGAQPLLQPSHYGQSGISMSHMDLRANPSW
Experimental: By using STAT6 inhibitor (S6I), it is confirmed that the reduction of Complement 3 in HepG2 cells (human hepatocyte cell line) is regulated by STAT6. […] It is also confirmed that PLAG has selective efficacy on STAT6 over STAT1. FIG. 1 presents graphs showing STAT1 and STAT6 transcriptional activity in the PLAG treated HepG2 cells. NC refers to the unstimulated control cell. For the STAT1 assay, gene transfected HepG2 (human hepatocyte cell line) is treated with 10 ng of IFN-γ and serially diluted PLAG is added (0.01 μg/ml, 0.1 μg/ml, 1 μg/ml, and 10 μg/ml as shown) to see its effect on gene expression in the stimulated cell. For the STAT6 assay, gene transfected HepG2 cells are treated with 10 ng of IL-4 and again serially diluted PLAG is added (0.01 μg/ml, 0.1 μg/ml, 1 μg/ml, and 10 μg/ml as shown) to see its effect on gene expression in the stimulated cell. The assay is carried out following 12 hours incubation of treated cells.

C3 = C3 expression in HepG2 cell line, RT-PCR of mRNA; type: cell-based, human; conditions: HepG2 cells, 2 hours
Experimental: A liver cell line, HepG2 (American Type Culture Collection, ATCC, Rockville, Md.), is incubated and maintained at 37° C., 5% CO2 humid atmosphere in DMEM medium. When HepG2 cells, which are known to produce complement in culture, are treated with PLAG, the activity of complement is reduced effectively, as confirmed by RT-PCR of mRNA. In the RT-PCR, 5×10^5 number of HepG2 cells/ml are distributed into 12 well plates and induced C3 for 12 hours with 10% FCS. Then PLAG is added and further cultured for 2 hours. Cells are harvested and mRNA is isolated and RT-PCR is carried out with specific primer of C3; GAPDH is used as an internal control.

[1] = system: platelets and neutrophils; experiment: Pilot study: thrombocytopenia and neutropenia in pancreatic cancer patients receiving chemotherapy; type: in vivo, human; conditions: 16 patients
Experimental: PLAG is administered to sixteen pancreatic cancer patients after chemotherapy. The subjects of this study are unoperable pancreatic cancer patients with ECOG (Eastern Cooperative Oncology Group) performance status of “0” or “1”, i.e. patients in good physical condition without much pain, able to enjoy almost normal lifestyle and thus, eligible for anticancer treatment for at least 2 months. The pancreatic cancer patients are “locally advanced” patients having tumor metastasis to the major vessels around pancreas or “Distant metastasis” patients with distant metastasis to liver, lung, bone, etc. ECOG performance status “0” refers to a patient who is asymptomatic, fully active, able to carry on all predisease activities without restriction with no pain and no problem for normal lifestyle, while “1” refers to a patient who is symptomatic but completely ambulatory with mile pain and a little problem for normal life. Anticancer (Gemcitabine and Erlotinib combo treatment) Regimen is as follows: 1,000 mg of Gemcitabine is injected once a week for three weeks (Day 1, Day 8, Day 15), and is not injected in the next one week (Day 22). Therefore, 1 cycle of anticancer treatment requires 1 month. 100 mg of Erlotinib (Tarceva) is administered once per day everyday orally. 1,000 mg of PLAG is also administered once per day orally, starting from 3 days before anticancer treatment until the last chemotherapy treatment. The PLAG treatment group and control group both completed two cycles of anticancer treatment. There is no difference among the control and PALG treatment groups in the amount or schedule of anticancer treatment.

[2] = Gemcitabine and Erlotinib, PLAG 1,000 mg once per day orally, two cycles

CCCCC/C=C\C/C=C\CCCCCCCC(=O)OC(COC(C)=O)COC(=O)CCCCCCCCCCCCCCC (racemic) [PLAG, 1-palmitoyl-2-linoleoyl-3-acetylglycerol]
STAT6 expression (transcriptional activity, reporter) (STAT6): significant, dose-dependent effect
inhibition of C3 expression (RT-PCR) (C3; PLAG 1 microgram/ml): somewhat
inhibition of C3 expression (RT-PCR) (C3; PLAG 10 microgram/ml): entirely
patients whose platelet number dropped to less than 25,000/μl [1, 2]: no patient
patients with platelet number decrease to less than 50,000/μl [1, 2]: no patient
patients with >70% decrease in platelet count ([1]; PLAG treatment group): none
patients with neutrophil decrease to less than 500/μl ([1]; PLAG treatment group): none
patients with neutrophil number decrease to less than 75% ([1]; PLAG treatment group): none and not one patient

Reference: US11491132B2, “Methods for treating thrombocytopenia” (Enzychem Lifesciences Corporation, priority 2014, dated 2022)
